Data reported in patent EP0269947B2, “Antiviral phosphonomethoxyalkylene purine and pyrimidine derivatives” (priority 1986, dated 1988).

Tests used:
Set-up in all cases: unit not given here
[1] = tested on: HSV-1; assay: Plaque reduction assay, herpes simplex virus type 1; type: cell-based, Herpes simplex virus (HSV); settings: vero cells, 48-hour incubation; concentration reducing number of plaques by 50%
Method: (§1) Herpes simplex virus (HSV) strains wars grown and titered at 37°C in vero cells (African Green Monkey Kidney cells) and used for virus work before the tenth passage.
(§2) Cells were grown and maintained in Earle's Minimum Essential Medium (EMEM), Gibco Laboratories, supplemented with 0.75% sodium bicarbonate, 2mM 1-glutamine, Pen-strep. and 5-10% fetal calf serum.
(§3) The titer of HSV strains is determined by a plaque titration method (Roizman and Roane,"Virology," 15:75-79, 1961). Tissue culture 24-well petri dishes are seeded with cells and used for assays when approximately 75% monolayer. Volumes (0.1ml) of logarithmic dilutions of the virus strain are inoculated onto each of triplicate wells, and absorbed for one hour with intermittent shaking. The inoculum thereafter is removed, and 1 ml of 5-10% EMEM containing 0.3% human immune serum globulin is added. After a 48 hr. incubation period at 37°C in a 5% CO2 atmosphere, the overlay medium is removed and the cell sheets stained with Giemsa stain. The number of plaques is counted, the triplicate is averaged, and the number of plaque-forming units per ml is calculated.
(§4) The compounds are tested for activity against the herpes simplex strains using a stock solution of each compound freshly prepared. Appropriate dilution of each compound are made in 10% EMEM before usage. The antiviral efficacy of each compound is determined using the plaque reduction assay described above. Briefly, tissue culture 24-well plates, with approximately 75% cell monolayer are inoculated with approximately 50 plaque forming units of HSV per 0.1 ml, and the virus adsorbed for 1 hr, with intermittent shaking. After removal of the inoculum, 1 ml of 10% EMEM containing two-fold dilutions of the appropriate drug are added in triplicates. Triplicate wells/plate receives no drug and are used as a virus control. After a 48-hour incubation period, at 37°C in a 5% CO2 atmosphere, the overlay medium is removed, the cells stained as described above, and plaques are counted. The counts of triplicate wells are averaged, and the number of plaques in the presence of each drug dilution are calculated.
(§5) The antiviral potency of the drug is determined by ID50, the drug concentration necessary to reduce the number of plaques by 50% of those in the virus control cultures.

[2] = tested on: HSV-1; assay: Colorimetric dye-uptake assay (neutral red), herpes simplex virus type 1; type: cell-based, Herpes simplex virus (HSV); settings: vero cells, 48 hr incubation, neutral red stain; ID50 by linear regression
Method: as §1, §2
(§6) For the primary screening, a colorimetric dye-uptake assay (McLaren, C., et al., "Antiviral Research," 3:323, 1983) is used employing rapidly growing vero cells. Briefly, cells, compound and virus dilutions are added onto 96-well tissue culture plates simultaneously using the cells, viruses and medium described above. After 48 hr. incubation at 37°C in 5% CO2 atmosphere, the overlay medium is removed and the cell sheets are stained with 0.04% neutral red solution. After 30 min. incubation at 37°C, the cell sheets are washed and the stain is eluted with 0.05 M sodium monophosphate in 47% ethanol and the O.D. is determined at 540 nm wave length.
(§7) The 50% inhibitory dose (ID50) for each drug is determined by linear regression analysis.

[3] = tested on: Murine leukemia virus (MuLV); assay: UV-XC plaque assay against murine retroviruses; type: cell-based; settings: MuLV in SC-1 cells
Method: The compounds wore evaluated for antiviral activity against Murine leukemia virus (MuLV) strains using the UV-XC plaque assay (Rowe, et al., "Virology," 42:1136, 1970).
The MuLV strains were grown in feral mouse cells (SC-1) and used for antiviral tests using the UV-XC plaque assay. Briefly, SC-1 coils are grown as monolayers in 4-well tissue culture plates and inoculated with approximately 50-100 plaque forming units of MuLV in 0.5 ml of 5% EMEM containing 20 ug/ml DEAE/Dextran. After 1 hr. adsorbtion, the inoculum is removed and 5 ml of 5% EMEM containing three-fold dilutions of the appropriate drug are added. Five days later, the cultures are UV-irradiated with an ultraviolet lamp and rat XC sarcoma cells are added to the cultures. Three-four days after UV-irradiation, the cell cultures are stained with Giemsa stain and the plaques are enumerated. Antiviral activity is expressed in terms of the reduction in the mean number of UV-XC plaques counted in the drug treated, virus-infected cultures compared with mean number of plaques counted in untreated, virus-infected control cultures. The ID50 for each drug was determined.

[4] = tested on: Human cytomegalovirus (HCMV) strain (AD169); assay: Plaque reduction assay against human cytomegalovirus; type: cell-based; settings: HCMV strain AD169 in MRC-5 cells
Method: as §3, §4, §5
Human cytomegalovirus (HCMV) strain (AD169) was grown and titered at 37° in human embryonic lung (diploid) cells, MRC-5, and used for the antiviral assay.
The compounds are tested for activity against the HCMV using the procedure for the plaque reduction assay described above.

[5] = tested on: HSV-2; assay: Plaque reduction assay, herpes simplex virus type 2; type: cell-based, Herpes simplex virus (HSV); settings: vero cells, 48-hour incubation; concentration reducing number of plaques by 50%
Method: as §1, §2, §3, §4, §5

[6] = tested on: HSV-2; assay: Colorimetric dye-uptake assay (neutral red), herpes simplex virus type 2; type: cell-based, Herpes simplex virus (HSV); settings: vero cells, 48 hr incubation, neutral red stain; ID50 by linear regression
Method: as §1, §2, §6, §7

Compound	Plaque Reduction HSV-1 ID50 [1]	Dye-Uptake HSV-1 ID50 [2]	Muly ID50 [3]	CMV ID50 [4]	Plaque Reduction HSV-2 ID50 [5]	Dye-Uptake HSV-2 ID50 [6]
Nc1ncnc2c1ncn2C[C@@H](CO)OCP(=O)(O)O [(S)-9-(3-Hydroxy-2-phosphonomethoxy)propyl adenine, reference compound]	13.8	15.1	2.0	0.13	35.8	> 25
CCOP(=O)(O)COCCn1cnc2c(=O)[nH]c(N)nc21 [Ex. 7, 9-(2-(Monoethylphosphonomethoxy)ethyl)guanine]	4.8	12	0.56	0.23	5.1	8
Nc1nc2c(ncn2CCCOCP(=O)(O)O)c(=O)[nH]1 [Ex. 18]	–	–	0.04	6.0	–	–
COP(=O)(O)COCCn1cnc2c(=O)[nH]c(N)nc21 [Ex. 32]	1.6	1.5	0.05	–	1.2	3.8
Cc1cn([C@H]2C[C@H](N=[N+]=[N-])[C@@H](CO)O2)c(=O)[nH]c1=O [3'-Azido-3'-deoxythymidine, reference compound]	–	–	0.0001	–	–	–
Nc1ncc2ncn(CCOCP(=O)(O)O)c2n1 [Ex. 25]	–	–	–	<0.032	–	–
CCCOP(=O)(O)COCCn1cnc2c(=O)[nH]c(N)nc21 [Ex. 33]	9.7	–	–	–	9.9	–
Nc1nc2c(ncn2COC(CO)CO)c(=O)[nH]1 [9-(1,3-Dihydroxypropoxymethyl)guanine, reference compound]	–	–	–	1.2	–	–
CC(COCP(=O)(O)O)n1cnc2c(=O)[nH]c(N)nc21 (centres unmarked) [Ex. 13]	3.0	8.7	–	–	3.3	10.4
CC(C)OP(=O)(O)COCCn1cnc2c(=O)[nH]c(N)nc21 [Ex. 34]	74.9	–	1.72	–	34.8	–
Nc1nc2c(ncn2COCCO)c(=O)[nH]1 [Acyclovir, reference compound]	0.3	0.5	–	–	1.5	1.0
